Measured values from PubChem BioAssay AID434942 (Johns Hopkins Ion Channel Center, 2010).

Biological target: Short transient receptor potential channel 4 (Mus musculus) (UniProt Q9QUQ5)
Experiment: mouse TRPC4 channel inhibitors, dose response, cell-based, HEK293 TRPC4/mu-opioid, Fluo-4 calcium (AID 434942);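 note: potency of inhibitors blocking the DAMGO-evoked TRPC4 calcium rise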
Settings: HEK293 TRPC4/mu-opioid cells, DAMGO-evoked Fluo-4 calcium ratio

Sequence of Short transient receptor potential channel 4 (Mus musculus) (Q9QUQ5 whole entry, looked up): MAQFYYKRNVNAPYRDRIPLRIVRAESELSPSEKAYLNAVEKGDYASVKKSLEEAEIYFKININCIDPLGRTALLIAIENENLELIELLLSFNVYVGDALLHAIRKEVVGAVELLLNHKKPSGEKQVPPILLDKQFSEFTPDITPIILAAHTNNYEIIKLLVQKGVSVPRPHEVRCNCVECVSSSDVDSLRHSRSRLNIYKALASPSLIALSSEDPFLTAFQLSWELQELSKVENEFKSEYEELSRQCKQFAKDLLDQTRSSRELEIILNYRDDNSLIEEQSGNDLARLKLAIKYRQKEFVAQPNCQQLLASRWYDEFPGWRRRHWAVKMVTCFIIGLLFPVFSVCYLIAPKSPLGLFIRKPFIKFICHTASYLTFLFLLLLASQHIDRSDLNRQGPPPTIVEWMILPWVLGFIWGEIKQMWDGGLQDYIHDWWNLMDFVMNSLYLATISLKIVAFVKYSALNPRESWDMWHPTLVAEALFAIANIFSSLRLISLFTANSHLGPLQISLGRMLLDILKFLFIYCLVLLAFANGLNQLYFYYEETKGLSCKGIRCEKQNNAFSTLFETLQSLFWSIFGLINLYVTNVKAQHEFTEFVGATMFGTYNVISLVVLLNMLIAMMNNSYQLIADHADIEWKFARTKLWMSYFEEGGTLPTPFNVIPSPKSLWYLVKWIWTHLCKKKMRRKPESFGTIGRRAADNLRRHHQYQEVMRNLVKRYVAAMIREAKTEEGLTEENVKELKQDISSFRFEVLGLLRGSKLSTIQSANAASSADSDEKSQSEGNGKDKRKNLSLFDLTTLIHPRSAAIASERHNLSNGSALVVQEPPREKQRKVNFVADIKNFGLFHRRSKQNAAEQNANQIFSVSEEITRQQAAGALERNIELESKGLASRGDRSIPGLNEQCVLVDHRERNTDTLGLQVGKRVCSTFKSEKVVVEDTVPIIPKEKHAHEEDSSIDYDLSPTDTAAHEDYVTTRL

Row | IC50 | SMILES
1 | 1500 nM | CC(=O)Nc1ccc(C2(c3ccc(NC(C)=O)cc3)C(=O)Nc3ccccc32)cc1
2 | 2110 nM | CC1Cc2ccccc2N1C(=O)CSc1nc2c(c(=O)n(C)c(=O)n2C)n1Cc1ccccc1 (configuration not stated)
